Laboratory results reported in patent US20230321104A1, “USE OF PYRIDO[1,2-A]PYRIMIDINONE COMPOUND IN TREATING PERIPHERAL T CELL LYMPHOMA” (CHIA TAI TIANQING PHARMACEUTICAL GROUP CO., LTD., priority 2020, published 2023).

Tested on: relapsed/refractory peripheral T-cell lymphoma (PTCL)
Experiment: Clinical trials on peripheral T-cell lymphoma
Format: in vivo, human
Conditions: for SPD (sum of products of maximum vertical diameters of multiple lesions): baseline 717 mm
Description: 2.1 Administration Regimen • Method of administration: orally administered once daily, 15 mg or 20 mg each time, with 21 consecutive days of administration as one cycle. • Drug: tablet of the compound of formula I, 5 mg or 20 mg.
2.2 Enrollment Criteria • 1) Histopathologically confirmed relapsed/refractory peripheral T-cell lymphoma (PTCL), including four subtypes: peripheral T-cell lymphoma, not otherwise specified (PTCL-NOS); angioimmunoblastic T-cell lymphoma (AITL); anaplastic large cell lymphoma (ALCL); and extranodal NK/T cell lymphoma (NKTCL), nasal type; • 2) Has previously received at least first-line systemic treatment regimen, had disease progression during or after the most recent treatment, or had no objective response after adequate treatment; • 3) At least one measurable target lesion present (evaluated according to the Lugano evaluation criteria, 2014 edition); • 4) Age ≥18 years; ECOG (PS) score: 0-2; expected survival time ≥3 months; • 5) Main organ functions in the screening phase meet the following criteria:
Criteria for Blood Routine Examination (No Growth Factor Used or No Blood Transfusion Conducted within 14 Days): • Absolute neutrophil count (ANC)≥1.0×10^9/L; • Lymphocyte count (LYM)≥0.5×10^9/L; • CD4+ T lymphocyte count≥0.2×10^9/L; • Platelet (PLT)≥75×10^9/L (for patients with lymphoma bone marrow infiltration, ≥50×10^9/L acceptable); • Hemoglobin (Hb)≥80 g/L;

[1] = patients with peripheral T-cell lymphoma, oral once daily 15 mg or 20 mg

In the case of `COc1ncc(-c2ccc3ncc(OCCN(C)C)c(=O)n3c2)cc1NS(=O)(=O)c1ccc(F)cc1Cl` [compound of formula I], the “objective response rate (ORR)” value (6 enrolled patients with peripheral T-cell lymphoma (3/6), oral once daily 15 mg or 20 mg, 21-day cycle, Lugano 2014 criteria) was 50%, the “SPD (sum of products of maximum vertical diameters of multiple lesions)” value (Case 1, ALK negative anaplastic large cell lymphoma, 15 mg each day, after 2 cycles of medication) was 495 mm and the overall therapeutic effect (Case 1, ALK negative anaplastic large cell lymphoma, 15 mg each day, after 4 cycles) was “complete response (CR)”. For the same compound, the new lesion (Case 1, 15 mg each day, after 4 cycles) was “no new lesion was found”, the “SUVmax of the highest uptake lesion, the left parotid gland area (PET-CT)” value (Case 1, 15 mg each day, after 4 cycles of medication, baseline 7.0) was 1.5 and the “SPD (sum of products of maximum vertical diameters of multiple lesions)” value (Case 1, 15 mg each day, after 4 cycles of medication) was 409 mm. For the same compound, the therapeutic effect (Case 2, extranodal NK/T cell lymphoma, nasal type, 15 mg each day, after 2 cycles of treatment) was “partial response (PR)”, the “SPD of measurable target lesions (enhanced MRI)” value (Case 2, extranodal NK/T cell lymphoma, nasal type, 15 mg each day, after 2 cycles of treatment, before treatment 280 mm) was 117 mm and the new lesion (Case 2, 15 mg each day, after 2 cycles of treatment) was “no new lesion was found”. For the same compound, the “decrease of SPD” value (Case 2, 15 mg each day, after 2 cycles of treatment, versus 280 mm before treatment) was 58.2%, the safety in treatment [1] was “good safety” and the “therapeutic effect on peripheral T-cell lymphoma” value [1] was “good therapeutic effect”.
